From US20140128402A1, “PHARMACEUTICAL COMBINATION” (IPCA Laboratories Limited, priority 2011, published 2014)

Assays:
Format in all cases: in vivo, Wistar rats
[1] = test system: STZ-induced diabetic rats; experiment: Study No 1: body weight, food intake and water intake in STZ-induced diabetic rats; conditions: for AVERAGE WATER INTAKE: oral
Method: (§1) In this experiment 48 Wistar rats weighing 130-150 g of either sex were divided randomly into 8 groups consisting of 6 rats each. The study drugs suspended in vehicle [0.1% w/v suspension of Tween 80 and carboxymethylcellulose (CMC) in water] were administered for orally for 21 days. Group 1 (normal vehicle control) consisted of normal rats that neither received streptozotocin nor any test drug; Group 2 served as streptozotocin induced diabetic control (Diabetes was induced in rats by single administration of streptozotocin (60 mg/kg/i.p) dissolved in 0.1 M-citrate buffer, pH 4.5). Forty-eight hours later, blood samples were collected and glucose levels were determined to confirm the development of diabetes. […] Group 3 was diabetic rats treated with dose equivalent to human therapeutic dose of sitagliptin (STG) (11 mg/kg); Group 4 was diabetic rats treated with dose equivalent to human therapeutic dose of Hydroxychloroquine (HCQ) (46 mg/kg), Group 5 was diabetic rats treated with combination of HCQ 46 mg/kg and STG11 mg/kg; […] For other biochemical parameters i.e. […] Other parameters like body weight, food intake and water intake were evaluated weekly till day 21st.

[2] = test system: STZ-induced diabetic rats; experiment: Study No 1: biochemical parameters in STZ-induced diabetic rats; conditions: after 21 days
Method: as §1

[3] = test system: STZ-induced diabetic rats; experiment: Study No 2: biochemical parameters in STZ-induced diabetic rats
[4] = test system: STZ-induced diabetic rats; experiment: Study No 1: blood glucose in STZ-induced diabetic rats (HCQ with sitagliptin)
Method: In this experiment 48 Wistar rats weighing 130-150 g of either sex were divided randomly into 8 groups consisting of 6 rats each. The study drugs suspended in vehicle [0.1% w/v suspension of Tween 80 and carboxymethylcellulose (CMC) in water] were administered for orally for 21 days. Group 1 (normal vehicle control) consisted of normal rats that neither received streptozotocin nor any test drug; Group 2 served as streptozotocin induced diabetic control (Diabetes was induced in rats by single administration of streptozotocin (60 mg/kg/i.p) dissolved in 0.1 M-citrate buffer, pH 4.5). Forty-eight hours later, blood samples were collected and glucose levels were determined to confirm the development of diabetes.
Blood glucose level was measured in normal and experimental rats at 1st, 7th, 14th and 21st day of administration. For other biochemical parameters i.e. Insulin, HbA1c, Triglycerides, Total Cholesterol, HDL, SGOT, SGPT, Total Protein, Albumin, Creatinine and Urea Blood samples were collected 1 h after the last dose administration from 18 h fasted rats through the retro-orbital plexus under chloroform anesthesia and analyzed using autoanalyzer (Microlab 2000). Other parameters like body weight, food intake and water intake were evaluated weekly till day 21st.

[5] = test system: STZ induced diabetic rats; experiment: Study No 2: blood glucose in STZ induced diabetic rats (HCQ with vildagliptin and saxagliptin); conditions: for Plasma glucose concentration: oral
Method: In this experiment 96 Wistar rats weighing 150-200 g of either sex were divided randomly into 16 groups consisting of 6 rats each. The study drugs were dissolved in water/suspended in vehicle [0.1% w/v suspension of Tween 80 and carboxymethylcellulose (CMC) in water] and administered orally for 28 days. Group 1 (normal vehicle control) consisted of normal rats that neither received Streptozotocin (STZ) nor any test drug; Group 2 served as Streptozotocin induced diabetic control [Diabetes was induced in rats by single administration of Streptozotocin (55 mg/kg/i.p.) dissolved in 0.1 M-citrate buffer, pH 4.5]. Forty-eight hours later, blood samples were collected and glucose levels were determined to confirm the development of diabetes. Only animals showing hyperglycaemia (blood glucose levels>250 mg/dl) were considered as diabetic and received vehicle orally; Group 3 was diabetic rats treated with hydroxychloroquine (HCQ) (22.5 mg/kg); Group 4 was diabetic rats treated with HCQ (45 mg/kg), Group 5 was diabetic rats treated with vildagliptin (VG) 6 mg/kg; Group 6 was diabetic rats treated with VG 12 mg/kg; Group 7 was diabetic rats treated with HCQ 22.5 mg/kg+VG 12 mg/kg and Group 8 was diabetic rats treated with combination of HCQ 45 mg/kg and VG 6 mg/kg; Group 9 was diabetic rats treated with saxagliptin (SG) 0.3 mg/kg; Group 10 was diabetic rats treated with Saxagliptin (SG) 0.6 mg/kg; Group 11 was diabetic rats treated with combination of HCQ 45 mg/kg+SG 0.3 mg/kg; Group 12 was diabetic rats treated with combination of HCQ 22.5 mg/kg+SG 0.6 mg/kg; Group 13 was diabetic rats treated with combination of HCQ 22.5 mg/kg and VG 6 mg/kg; Group 14 was diabetic rats treated with combination of HCQ 45 mg/kg and VG 12 mg/kg; Group 15 was diabetic rats treated with combination of HCQ 22.5 mg/kg+SG 0.3 mg/kg; Group 16 was diabetic rats treated with combination of HCQ 45 mg/kg+SG 0.6 mg/kg.
Blood glucose level was measured in normal and experimental rats at 0, 7th, 14th, 21st and 28th day of administration.

[6] = subtherapeutic dose: STG 5.5, HCQ 23, STG+HCQ 5.5+23 mg/kg/day oral
[7] = therapeutic dose: STG 11, HCQ 46, STG+HCQ 11+46 mg/kg/day oral
[8] = after 28 days, HCQ 22.5, VG 6, SG 0.3 mg/kg alone, HCQ+VG 22.5+6, HCQ+SG 22.5+0.3 mg/kg/day, oral
[9] = after 28 days, HCQ 45, VG 12, SG 0.6 mg/kg alone, HCQ+VG 45+12, HCQ+SG 45+0.6 mg/kg/day, oral
[10] = monotherapies, all the tested dose levels except HCQ (22.5 mg/kg), p≦0.05

CCN(CCO)CCCC(C)Nc1ccnc2cc(Cl)ccc12 (stereo not drawn) [HCQ, Hydroxychloroquine]
AVERAGE WATER INTAKE ([1]; Day 1, Sub-The (subtherapeutic dose)): 31.67 mL | AVERAGE WATER INTAKE ([1]; Day 1, The (therapeutic dose)): 30.00 mL | Body Weight ([1]; Day 1, subtherapeutic dose: STG 5.5, HCQ 23, STG+HCQ 5.5+23 mg/kg oral): 133.33 ± 17.67 g | AVERAGE FOOD INTAKE ([1]; Day 1, subtherapeutic dose: STG 5.5, HCQ 23, combination 5.5+23 mg/kg oral): 12.17 g | Body Weight ([1]; Day 1, therapeutic dose: STG 11, HCQ 46, STG+HCQ 11+46 mg/kg oral): 140.33 ± 14.60 g | AVERAGE FOOD INTAKE ([1]; Day 1, therapeutic dose: STG 11, HCQ 46, combination 11+46 mg/kg oral): 11.50 g | AVERAGE WATER INTAKE ([1]; Day 7, Sub-The (subtherapeutic dose)): 32.17 mL | AVERAGE WATER INTAKE ([1]; Day 7, The (therapeutic dose)): 29.17 mL | Body Weight ([1]; Day 7, subtherapeutic dose: STG 5.5, HCQ 23, STG+HCQ 5.5+23 mg/kg oral): 133.67 ± 16.61 g | AVERAGE FOOD INTAKE ([1]; Day 7, subtherapeutic dose: STG 5.5, HCQ 23, combination 5.5+23 mg/kg oral): 11.50 g | Body Weight ([1]; Day 7, therapeutic dose: STG 11, HCQ 46, STG+HCQ 11+46 mg/kg oral): 141.17 ± 14.26 g | AVERAGE FOOD INTAKE ([1]; Day 7, therapeutic dose: STG 11, HCQ 46, combination 11+46 mg/kg oral): 10.33 g | AVERAGE WATER INTAKE ([1]; Day 14, Sub-The (subtherapeutic dose)): 32.17 mL | AVERAGE WATER INTAKE ([1]; Day 14, The (therapeutic dose)): 28.33 mL | Body Weight ([1]; Day 14, subtherapeutic dose: STG 5.5, HCQ 23, STG+HCQ 5.5+23 mg/kg oral): 135.17 ± 16.29 g | AVERAGE FOOD INTAKE ([1]; Day 14, subtherapeutic dose: STG 5.5, HCQ 23, combination 5.5+23 mg/kg oral): 11.83 g | Body Weight ([1]; Day 14, therapeutic dose: STG 11, HCQ 46, STG+HCQ 11+46 mg/kg oral): 142.67 ± 13.52 g | AVERAGE FOOD INTAKE ([1]; Day 14, therapeutic dose: STG 11, HCQ 46, combination 11+46 mg/kg oral): 8.67 g | AVERAGE WATER INTAKE ([1]; Day 21, Sub-The (subtherapeutic dose)): 31.83 mL | AVERAGE WATER INTAKE ([1]; Day 21, The (therapeutic dose)): 28.83 mL | Body Weight ([1]; Day 21, subtherapeutic dose: STG 5.5, HCQ 23, STG+HCQ 5.5+23 mg/kg oral): 137.00 ± 15.75 g | AVERAGE FOOD INTAKE ([1]; Day 21, subtherapeutic dose: STG 5.5, HCQ 23, combination 5.5+23 mg/kg oral): 11.67 g | AVERAGE FOOD INTAKE ([1]; Day 21, therapeutic dose: STG 11, HCQ 46, combination 11+46 mg/kg oral): 8.33 g | Creatinine [2, 6]: 1.79 | HDL-C [2, 6]: 24.99 mg/dL | HbA1c [2, 6]: 5.30 | Insulin (serum) [2, 6]: 4.71 | SGOT [2, 6]: 57.29 | SGPT [2, 6]: 58.12 | TC [2, 6]: 166.69 mg/dL | TG [2, 6]: 130.65 mg/dL | Total Protein [2, 6]: 4.03 g/dL | Urea [2, 6]: 46.38 mg/dL | Albumin [2, 7]: 2.33 g/dL | Creatinine [2, 7]: 1.72 | HDL-C [2, 7]: 25.07 mg/dL | HbA1c [2, 7]: 4.91 | Insulin (serum) [2, 7]: 5.97 | SGOT [2, 7]: 53.77 | SGPT [2, 7]: 55.94 | TC [2, 7]: 158.57 mg/dL | TG [2, 7]: 124.68 mg/dL | Total Protein [2, 7]: 4.12 g/dL | Urea [2, 7]: 43.85 mg/dL | HbA1c [3, 8]: 11.28 ± 1.08 % | Total Protein [3, 8]: 6.16 ± 0.41 gm/dl | Urea [3, 8]: 24.68 ± 1.96 mg/dL | Creatinine [3, 9]: 1.75 ± 0.29 mg/dL | HbA1c [3, 9]: 11.07 ± 1.22 % | Total Protein [3, 9]: 6.35 ± 0.79 gm/dl | Urea [3, 9]: 23.37 ± 2.86 mg/dL | HbA1c levels as compared to diabetic control ([3]; all tested doses, 28 days, p≦0.05): significantly (p≦0.05) reduced | total protein level as compared to the diabetic control group ([3]; monotherapies at all doses, 28 days, p≦0.05): significant rise | creatinine levels as compared to diabetic control group [3, 10]: significant reduction | urea levels as compared to diabetic control group [3, 10]: significant reduction | Plasma glucose concentration ([4]; 1st day, subtherapeutic dose: STG 5.5, HCQ 23, STG+HCQ 5.5+23 mg/kg oral): 253.33 ± 24.86 mg/dL | Plasma glucose concentration ([4]; 1st day, therapeutic dose: STG 11, HCQ 46, STG+HCQ 11+46 mg/kg oral): 267.83 ± 10.53 mg/dL | Plasma glucose concentration ([4]; 7th day, subtherapeutic dose: STG 5.5, HCQ 23, STG+HCQ 5.5+23 mg/kg oral): 248.67 ± 24.63 mg/dL | Plasma glucose concentration ([4]; 7th day, therapeutic dose: STG 11, HCQ 46, STG+HCQ 11+46 mg/kg oral): 243.83 ± 10.78 mg/dL | Plasma glucose concentration ([4]; 14th day, subtherapeutic dose: STG 5.5, HCQ 23, STG+HCQ 5.5+23 mg/kg oral): 241.33 ± 24.73 mg/dL | Plasma glucose concentration ([4]; 14th day, therapeutic dose: STG 11, HCQ 46, STG+HCQ 11+46 mg/kg oral, 46 mg/kg): 230.00 ± 12.96 mg/dL | Plasma glucose concentration ([4]; 14th day, therapeutic dose: STG 11, HCQ 46, STG+HCQ 11+46 mg/kg oral, listed as hydroxychloroquine, 46 mg/kg): significant improvement | Plasma glucose concentration ([4]; 21st day, subtherapeutic dose: STG 5.5, HCQ 23, STG+HCQ 5.5+23 mg/kg oral): 232.00 ± 19.92 mg/dL | Plasma glucose concentration ([4]; 21st day, therapeutic dose: STG 11, HCQ 46, STG+HCQ 11+46 mg/kg oral): 207.67 ± 7.53 mg/dL | Plasma glucose concentration ([5]; Day 0, HCQ 22.5, VG 6, SG 0.3 mg/kg alone, HCQ+VG 22.5+6, HCQ+SG 22.5+0.3 mg/kg): 292.17 ± 26.12 mg/dL | Plasma glucose concentration ([5]; Day 0, HCQ 45, VG 12, SG 0.6 mg/kg alone, HCQ+VG 45+12, HCQ+SG 45+0.6 mg/kg): 305.67 ± 27.14 mg/dL | Plasma glucose concentration ([5]; Day 7, HCQ 22.5, VG 6, SG 0.3 mg/kg alone, HCQ+VG 22.5+6, HCQ+SG 22.5+0.3 mg/kg): 278 ± 22.59 mg/dL | Plasma glucose concentration ([5]; Day 7, HCQ 45, VG 12, SG 0.6 mg/kg alone, HCQ+VG 45+12, HCQ+SG 45+0.6 mg/kg): 265.5 ± 8.87 mg/dL | Plasma glucose concentration ([5]; Day 14, HCQ 22.5, VG 6, SG 0.3 mg/kg alone, HCQ+VG 22.5+6, HCQ+SG 22.5+0.3 mg/kg): 269.33 ± 11.45 mg/dL | Plasma glucose concentration ([5]; Day 14, HCQ 45, VG 12, SG 0.6 mg/kg alone, HCQ+VG 45+12, HCQ+SG 45+0.6 mg/kg): 266.5 ± 15.86 mg/dL | Plasma glucose concentration ([5]; Day 21, HCQ 22.5, VG 6, SG 0.3 mg/kg alone, HCQ+VG 22.5+6, HCQ+SG 22.5+0.3 mg/kg): 266.67 ± 24.68 mg/dL | Plasma glucose concentration ([5]; Day 21, HCQ 45, VG 12, SG 0.6 mg/kg alone, HCQ+VG 45+12, HCQ+SG 45+0.6 mg/kg): 265.83 ± 9.22 mg/dL | Plasma glucose concentration ([5]; Day 28, HCQ 22.5, VG 6, SG 0.3 mg/kg alone, HCQ+VG 22.5+6, HCQ+SG 22.5+0.3 mg/kg): 266.5 ± 11.33 mg/dL | Plasma glucose concentration ([5]; Day 28, HCQ 45, VG 12, SG 0.6 mg/kg alone, HCQ+VG 45+12, HCQ+SG 45+0.6 mg/kg): 244.5 ± 18.1 mg/dL | blood glucose levels as compared to diabetic control group ([5]; alone at therapeutic equivalent doses, day 28): significant improvement
